Drawing on ChEMBL document CHEMBL1201862, “PubChem BioAssay data set” (2004), this text covers AC50, IC50 and EC50 for 15 compounds.

For one experiment, the target named is Cytochrome P450 2D6 (Homo sapiens, UniProt P10635).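 Further: CYP2D6 member of a cytochrome P450 panel assay.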
Experiment [1] concerns the target T1, Tyrosine-protein phosphatase non-receptor type 7 (Homo sapiens, UniProt P35236).
T1 sequence (P35236 whole entry): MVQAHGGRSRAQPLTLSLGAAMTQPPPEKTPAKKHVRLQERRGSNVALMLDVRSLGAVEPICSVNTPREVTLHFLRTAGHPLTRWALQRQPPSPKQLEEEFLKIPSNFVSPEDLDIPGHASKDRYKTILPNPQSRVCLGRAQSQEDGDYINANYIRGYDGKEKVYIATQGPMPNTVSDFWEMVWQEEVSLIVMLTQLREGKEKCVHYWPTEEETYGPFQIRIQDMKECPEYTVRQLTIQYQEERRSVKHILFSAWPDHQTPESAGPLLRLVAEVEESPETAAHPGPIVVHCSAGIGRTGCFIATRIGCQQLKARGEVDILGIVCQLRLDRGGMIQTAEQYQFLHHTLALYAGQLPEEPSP
Kind of experiment: HePTP tyrosine phosphatase activity blockers – biochemical, absorbance, leukemia target, primary screen (AID 521). Format: functional.

A further experiment concerns the target Procathepsin L (Homo sapiens, UniProt P07711). As to the kind of experiment: CTSL1 protease inhibition – biochemical, QFRET, 1536-well, counter-screen for M1/M17 aminopeptidase inhibitor project, dose response (AID 2214). (The purpose of a counterscreen is to sort out artefacts and off-target activity.)
Another experiment deals with T2, Leucine aminopeptidase (Plasmodium falciparum 3D7, UniProt Q8IL11).
T2 sequence (Q8IL11 whole entry): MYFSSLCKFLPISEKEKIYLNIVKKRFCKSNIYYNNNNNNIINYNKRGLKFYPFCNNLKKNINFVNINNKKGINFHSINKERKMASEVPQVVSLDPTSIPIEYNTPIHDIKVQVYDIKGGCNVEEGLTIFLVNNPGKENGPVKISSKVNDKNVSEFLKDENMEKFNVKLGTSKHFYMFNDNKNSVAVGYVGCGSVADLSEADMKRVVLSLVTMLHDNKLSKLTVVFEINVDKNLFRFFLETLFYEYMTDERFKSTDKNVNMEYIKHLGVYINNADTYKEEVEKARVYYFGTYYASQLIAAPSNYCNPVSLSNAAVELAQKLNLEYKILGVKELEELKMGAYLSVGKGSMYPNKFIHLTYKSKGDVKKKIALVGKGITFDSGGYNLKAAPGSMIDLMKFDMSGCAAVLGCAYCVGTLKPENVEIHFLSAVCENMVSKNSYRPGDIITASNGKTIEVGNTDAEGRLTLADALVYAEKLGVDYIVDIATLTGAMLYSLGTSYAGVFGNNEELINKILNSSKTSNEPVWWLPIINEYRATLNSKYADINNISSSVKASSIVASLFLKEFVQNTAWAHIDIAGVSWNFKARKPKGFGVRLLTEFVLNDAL
As to the kind of experiment: P. falciparum M17LAP inhibitors, primary screen, biochemical, fluorogenic H-Leu-NHMec substrate, 1536-well (AID 1619). Format: functional.

The next experiment concerns the target T3, Aspartyl aminopeptidase (Plasmodium falciparum 3D7, UniProt Q8I2J3).
T3 sequence (Q8I2J3 whole entry): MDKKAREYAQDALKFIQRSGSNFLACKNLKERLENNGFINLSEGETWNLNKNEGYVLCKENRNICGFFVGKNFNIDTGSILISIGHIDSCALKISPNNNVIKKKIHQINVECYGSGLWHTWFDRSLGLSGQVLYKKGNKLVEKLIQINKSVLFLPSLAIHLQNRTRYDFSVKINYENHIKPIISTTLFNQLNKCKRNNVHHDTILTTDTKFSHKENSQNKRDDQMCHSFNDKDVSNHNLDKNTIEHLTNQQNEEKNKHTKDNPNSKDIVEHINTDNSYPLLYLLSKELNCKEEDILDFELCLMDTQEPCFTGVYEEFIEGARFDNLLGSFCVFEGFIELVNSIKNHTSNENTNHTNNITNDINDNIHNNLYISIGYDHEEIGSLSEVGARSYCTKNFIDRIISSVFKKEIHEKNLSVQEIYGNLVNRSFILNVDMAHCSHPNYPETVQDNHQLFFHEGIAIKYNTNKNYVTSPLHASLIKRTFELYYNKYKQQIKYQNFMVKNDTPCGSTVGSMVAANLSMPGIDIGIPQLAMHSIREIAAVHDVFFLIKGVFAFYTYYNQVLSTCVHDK
As to the kind of experiment: Counterscreen for inhibitors of M1 and M17 aminopeptidases: QFRET-based biochemical high throughput dose response assay for inhibitors of the Plasmodium falciparum M18 Aspartyl Aminopeptidase (PFM18AAP). [Related PubChem assays: 1619 (Screening assay (M17LAP inhibitors).), 1445 (Screening assay (M1AAP inhibitors).)].

Experiment [2] can be described thus: viability of HCT116 lacking mutant beta-catenin – cell-based, human colon tumor, dose response (AID 1045).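 Further: HCT116 colon tumor cells with beta catenin knocked out; cells exposed to compound for 60 hours.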 The class given is functional.
The nature of experiment [3]: viability of PTEN-deleted HCT116 cells – cell-based, HCT116 PTEN knockout, dose response (AID 1047).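 Further: HCT116 colon tumor cells with PTEN knocked out; cells exposed to compound for 60 hours before readout; potency for loss of cell viability measured by luminescence.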 Format: functional.
Experiment [4] in a line: reduced cellular PGC1a acetyl-lysine signal – cell-based, cherry-picked samples, dose response (AID 720514).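 Further: potency may reflect raised or lowered acetylation signal.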 Format: functional.
A further experiment concerns the target Estrogen receptor beta (Homo sapiens, UniProt Q92731).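 Further: recombinant ER-beta bound to coactivator SRC1 peptide in presence of estradiol agonist; inhibitors block coactivator peptide binding and lower the FRET signal.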
A short description of experiment [5]: HIV-1 Vif–A3G interaction blockers – biochemical, TR-FRET, GST-Vif 1-94, biotin-A3G peptide, dose response retest, primary screen (AID 1117319).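 Further: TR-FRET signal of purified GST-Vif binding a biotinylated A3G peptide; inhibitors lower the FRET signal by blocking Vif and A3G binding.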 Format: functional. (In general: Time-resolved FRET reads energy transfer from a long-lived donor to a nearby acceptor.)
Experiment [6] concerns the target T4, Rac GTPase-activating protein 1 (Homo sapiens, UniProt Q9H0H5).
T4 sequence (Q9H0H5 whole entry): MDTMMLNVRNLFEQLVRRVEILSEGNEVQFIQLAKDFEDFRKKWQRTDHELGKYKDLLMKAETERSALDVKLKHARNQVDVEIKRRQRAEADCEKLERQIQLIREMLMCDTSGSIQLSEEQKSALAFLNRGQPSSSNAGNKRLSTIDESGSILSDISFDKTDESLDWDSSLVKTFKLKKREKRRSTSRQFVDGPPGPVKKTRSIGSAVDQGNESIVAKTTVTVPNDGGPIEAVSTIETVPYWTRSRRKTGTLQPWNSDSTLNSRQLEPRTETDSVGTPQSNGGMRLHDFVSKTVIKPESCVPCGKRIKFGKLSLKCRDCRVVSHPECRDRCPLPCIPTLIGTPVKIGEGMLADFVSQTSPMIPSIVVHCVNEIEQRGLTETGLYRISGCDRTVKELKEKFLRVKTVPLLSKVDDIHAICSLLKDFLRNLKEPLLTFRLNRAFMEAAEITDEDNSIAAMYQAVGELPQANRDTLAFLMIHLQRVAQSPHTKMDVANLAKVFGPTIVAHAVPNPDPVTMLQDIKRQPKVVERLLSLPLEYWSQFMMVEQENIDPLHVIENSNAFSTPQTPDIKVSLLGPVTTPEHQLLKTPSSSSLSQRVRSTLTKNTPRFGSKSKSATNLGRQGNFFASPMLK
Kind of experiment: blockers of MgcRacGAP-driven Rac1 GTP hydrolysis – biochemical, ADP Hunter fluorescence, primary and confirmatory, confirmation (AID 624330). Format: functional.

Experiment [7] addresses NAD-dependent protein deacylase sirtuin-5, mitochondrial (Homo sapiens, UniProt Q9NXA8). As to the kind of experiment: sirtuin-5 deacylation blockers, concentration series – biochemical, fluorescence imaging, cherry-pick, set 5, dose response (AID 720591).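 Further: desuccinylation of succinyl peptide AMC substrate read as fluorescence after trypsin release; potency of inhibitors that lower fluorescence and may act on trypsin instead.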
In experiment [8] the target is T5, Fatty acid synthase (Homo sapiens, UniProt P49327). Kind of experiment: inhibition of human FAS-TE enzyme activity – biochemical, endpoint fluorescence intensity, uHTS hits, dose response (AID 624327).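 Further: fluorescence from hydrolysis of an O-methyl fluorescein acyl ester substrate by the enzyme.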 The class given is functional.
The target of experiment [9] is Disintegrin and metalloproteinase domain-containing protein 17 (Homo sapiens, UniProt P78536). Kind of experiment: inhibition of ADAM17 substrate cleavage – biochemical, quenched FRET substrate, counter-screen for ADAM10 exosite inhibitor project, dose response (AID 743253).
In experiment [10] the target is T5, Fatty acid synthase. Kind of experiment: inhibition of human FAS-TE enzyme activity – biochemical, kinetic fluorescence intensity, dose response (AID 624326).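 Further: rate of fluorescence rise from hydrolysis of a fluorogenic O-methyl fluorescein ester substrate.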 Format: functional.
For experiment [11], the target named is T6, RNA-editing ligase 1, mitochondrial (Trypanosoma brucei brucei, UniProt P86926).
T6 sequence (P86926 whole entry): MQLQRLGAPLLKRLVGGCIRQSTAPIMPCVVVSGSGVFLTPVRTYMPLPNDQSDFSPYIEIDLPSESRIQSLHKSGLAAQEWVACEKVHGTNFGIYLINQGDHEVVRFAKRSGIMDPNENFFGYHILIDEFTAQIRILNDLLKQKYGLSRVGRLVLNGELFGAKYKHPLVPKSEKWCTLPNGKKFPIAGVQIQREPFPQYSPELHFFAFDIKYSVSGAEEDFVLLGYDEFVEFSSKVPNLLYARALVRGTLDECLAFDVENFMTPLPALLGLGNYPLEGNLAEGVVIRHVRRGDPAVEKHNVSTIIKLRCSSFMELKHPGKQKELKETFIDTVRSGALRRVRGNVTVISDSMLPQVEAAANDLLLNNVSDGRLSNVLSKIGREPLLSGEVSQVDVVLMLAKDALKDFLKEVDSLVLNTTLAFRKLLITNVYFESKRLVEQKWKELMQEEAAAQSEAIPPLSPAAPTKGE
As to the kind of experiment: inhibition of trypanosome RNA editing ligase – biochemical, fluorescence, Trypanosoma brucei, dose response (AID 1117295). Format: functional.

Experiment [12] in a line: HPDE-C7 pancreatic duct cell viability loss – fluorescence, HTS (AID 430). Format: functional, cell-based. The conditions noted are these: Homo sapiens.
Experiment [13] in a line: viability loss of HPDE-C7K cells – cell-based, fluorescence, HTS, primary screen (AID 431). Format: functional. To be noted: Homo sapiens.

The source made the active and inactive calls.

Procathepsin L, sequence (P07711 whole entry): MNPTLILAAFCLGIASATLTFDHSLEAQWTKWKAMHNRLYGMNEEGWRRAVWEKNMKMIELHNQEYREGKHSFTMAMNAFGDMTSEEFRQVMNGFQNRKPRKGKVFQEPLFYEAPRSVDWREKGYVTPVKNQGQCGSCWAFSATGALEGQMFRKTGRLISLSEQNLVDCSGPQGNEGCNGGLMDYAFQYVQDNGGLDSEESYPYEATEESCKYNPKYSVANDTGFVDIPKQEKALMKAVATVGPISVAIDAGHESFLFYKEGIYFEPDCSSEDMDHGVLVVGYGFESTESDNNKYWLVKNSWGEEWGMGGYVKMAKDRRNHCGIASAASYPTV
NAD-dependent protein deacylase sirtuin-5, mitochondrial, sequence (Q9NXA8 whole entry): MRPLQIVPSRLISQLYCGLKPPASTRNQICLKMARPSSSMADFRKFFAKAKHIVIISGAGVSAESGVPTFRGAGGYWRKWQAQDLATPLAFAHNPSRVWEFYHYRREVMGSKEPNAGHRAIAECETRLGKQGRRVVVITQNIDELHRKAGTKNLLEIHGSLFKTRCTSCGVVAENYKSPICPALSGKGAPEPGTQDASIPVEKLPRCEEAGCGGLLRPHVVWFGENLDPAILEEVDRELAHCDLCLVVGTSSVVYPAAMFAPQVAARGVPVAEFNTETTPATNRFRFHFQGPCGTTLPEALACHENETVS
T5 sequence (P49327 whole entry, the tested form may be a part): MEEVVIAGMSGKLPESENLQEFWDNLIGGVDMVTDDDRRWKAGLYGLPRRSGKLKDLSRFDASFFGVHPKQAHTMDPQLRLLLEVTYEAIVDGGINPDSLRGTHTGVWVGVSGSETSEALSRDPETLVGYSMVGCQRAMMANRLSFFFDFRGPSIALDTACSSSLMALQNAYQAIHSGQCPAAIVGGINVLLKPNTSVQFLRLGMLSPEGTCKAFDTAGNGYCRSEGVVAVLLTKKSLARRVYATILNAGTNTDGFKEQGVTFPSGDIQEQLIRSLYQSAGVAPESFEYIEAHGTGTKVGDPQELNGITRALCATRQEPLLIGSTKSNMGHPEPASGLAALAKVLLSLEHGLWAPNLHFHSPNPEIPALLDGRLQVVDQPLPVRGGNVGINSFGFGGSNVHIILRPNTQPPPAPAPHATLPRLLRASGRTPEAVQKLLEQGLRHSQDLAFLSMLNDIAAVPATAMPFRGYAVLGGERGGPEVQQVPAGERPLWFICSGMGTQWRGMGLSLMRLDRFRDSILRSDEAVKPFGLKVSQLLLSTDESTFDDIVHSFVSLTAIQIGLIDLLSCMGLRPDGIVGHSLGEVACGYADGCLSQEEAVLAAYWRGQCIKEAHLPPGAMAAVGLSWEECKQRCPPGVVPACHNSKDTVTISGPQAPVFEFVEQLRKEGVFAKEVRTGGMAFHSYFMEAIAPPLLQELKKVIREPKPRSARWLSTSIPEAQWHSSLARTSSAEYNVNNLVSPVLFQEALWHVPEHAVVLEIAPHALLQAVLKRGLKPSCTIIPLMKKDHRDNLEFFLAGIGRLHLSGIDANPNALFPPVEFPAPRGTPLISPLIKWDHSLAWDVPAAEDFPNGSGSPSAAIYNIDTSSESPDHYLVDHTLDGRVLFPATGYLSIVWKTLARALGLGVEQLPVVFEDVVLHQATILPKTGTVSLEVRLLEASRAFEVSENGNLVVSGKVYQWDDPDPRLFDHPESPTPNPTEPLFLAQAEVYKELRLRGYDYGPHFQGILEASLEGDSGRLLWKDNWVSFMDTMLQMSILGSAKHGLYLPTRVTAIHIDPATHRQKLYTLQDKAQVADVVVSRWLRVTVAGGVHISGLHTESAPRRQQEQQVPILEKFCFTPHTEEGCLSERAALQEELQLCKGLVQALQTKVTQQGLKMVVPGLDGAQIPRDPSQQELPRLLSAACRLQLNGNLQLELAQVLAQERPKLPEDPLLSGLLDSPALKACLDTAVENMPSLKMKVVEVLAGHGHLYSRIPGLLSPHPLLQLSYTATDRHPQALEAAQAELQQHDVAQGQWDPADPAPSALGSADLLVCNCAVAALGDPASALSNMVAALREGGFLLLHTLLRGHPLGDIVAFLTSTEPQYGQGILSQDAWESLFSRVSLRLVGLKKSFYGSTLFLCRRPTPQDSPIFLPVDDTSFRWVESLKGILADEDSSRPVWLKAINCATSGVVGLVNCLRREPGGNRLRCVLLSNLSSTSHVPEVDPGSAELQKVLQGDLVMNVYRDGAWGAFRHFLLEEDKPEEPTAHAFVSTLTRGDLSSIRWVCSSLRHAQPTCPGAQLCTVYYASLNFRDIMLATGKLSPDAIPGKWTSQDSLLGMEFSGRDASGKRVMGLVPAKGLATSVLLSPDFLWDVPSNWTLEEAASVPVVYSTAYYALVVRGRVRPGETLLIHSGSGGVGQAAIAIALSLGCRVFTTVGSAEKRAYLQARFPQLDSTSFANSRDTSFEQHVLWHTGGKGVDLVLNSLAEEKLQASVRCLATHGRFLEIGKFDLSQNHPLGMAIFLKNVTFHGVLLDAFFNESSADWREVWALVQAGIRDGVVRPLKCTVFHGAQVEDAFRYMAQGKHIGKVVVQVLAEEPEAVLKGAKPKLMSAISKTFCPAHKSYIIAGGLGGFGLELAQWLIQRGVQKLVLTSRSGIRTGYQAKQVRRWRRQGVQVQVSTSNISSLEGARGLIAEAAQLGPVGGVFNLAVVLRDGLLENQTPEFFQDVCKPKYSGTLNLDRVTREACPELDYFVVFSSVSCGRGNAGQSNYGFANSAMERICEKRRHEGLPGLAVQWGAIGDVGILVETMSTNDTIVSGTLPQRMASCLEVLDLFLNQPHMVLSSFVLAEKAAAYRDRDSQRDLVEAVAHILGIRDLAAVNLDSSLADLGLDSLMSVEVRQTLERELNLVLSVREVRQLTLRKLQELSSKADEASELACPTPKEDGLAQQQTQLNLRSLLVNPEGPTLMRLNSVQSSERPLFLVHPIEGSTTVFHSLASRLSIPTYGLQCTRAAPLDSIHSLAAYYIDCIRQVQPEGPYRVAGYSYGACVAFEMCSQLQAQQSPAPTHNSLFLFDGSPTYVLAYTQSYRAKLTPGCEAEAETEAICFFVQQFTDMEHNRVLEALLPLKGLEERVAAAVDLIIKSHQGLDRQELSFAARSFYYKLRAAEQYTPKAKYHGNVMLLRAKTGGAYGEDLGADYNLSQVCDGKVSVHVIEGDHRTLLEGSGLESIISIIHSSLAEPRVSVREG
Estrogen receptor beta, sequence (Q92731 whole entry): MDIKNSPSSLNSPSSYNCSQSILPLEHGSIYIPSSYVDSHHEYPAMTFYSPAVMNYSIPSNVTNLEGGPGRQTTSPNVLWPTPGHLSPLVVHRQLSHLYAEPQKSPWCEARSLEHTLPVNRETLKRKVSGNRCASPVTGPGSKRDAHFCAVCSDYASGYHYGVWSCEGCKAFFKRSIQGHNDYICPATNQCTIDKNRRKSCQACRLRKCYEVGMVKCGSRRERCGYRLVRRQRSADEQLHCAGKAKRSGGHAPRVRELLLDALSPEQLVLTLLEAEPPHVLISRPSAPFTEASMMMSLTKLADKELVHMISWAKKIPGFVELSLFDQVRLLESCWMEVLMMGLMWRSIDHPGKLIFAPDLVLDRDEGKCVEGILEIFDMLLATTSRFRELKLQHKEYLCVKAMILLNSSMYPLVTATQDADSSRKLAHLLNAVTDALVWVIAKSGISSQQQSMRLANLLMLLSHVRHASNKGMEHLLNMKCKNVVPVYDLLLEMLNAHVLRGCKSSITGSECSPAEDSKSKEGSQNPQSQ
Cytochrome P450 2D6, sequence (P10635 whole entry): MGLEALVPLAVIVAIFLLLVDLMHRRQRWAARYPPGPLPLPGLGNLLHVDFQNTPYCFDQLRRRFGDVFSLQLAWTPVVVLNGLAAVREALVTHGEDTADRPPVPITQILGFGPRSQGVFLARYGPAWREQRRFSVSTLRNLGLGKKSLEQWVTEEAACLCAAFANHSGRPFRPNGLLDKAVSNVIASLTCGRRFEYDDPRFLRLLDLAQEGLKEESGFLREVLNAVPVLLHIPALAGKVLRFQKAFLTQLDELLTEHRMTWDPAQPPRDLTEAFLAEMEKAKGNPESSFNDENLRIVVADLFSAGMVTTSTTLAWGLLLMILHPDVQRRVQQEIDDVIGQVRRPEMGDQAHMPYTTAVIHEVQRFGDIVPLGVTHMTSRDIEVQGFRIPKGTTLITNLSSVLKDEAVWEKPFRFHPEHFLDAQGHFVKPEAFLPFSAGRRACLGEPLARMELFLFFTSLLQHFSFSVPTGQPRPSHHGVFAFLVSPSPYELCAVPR
Disintegrin and metalloproteinase domain-containing protein 17, sequence (P78536 whole entry, the tested form may be a part): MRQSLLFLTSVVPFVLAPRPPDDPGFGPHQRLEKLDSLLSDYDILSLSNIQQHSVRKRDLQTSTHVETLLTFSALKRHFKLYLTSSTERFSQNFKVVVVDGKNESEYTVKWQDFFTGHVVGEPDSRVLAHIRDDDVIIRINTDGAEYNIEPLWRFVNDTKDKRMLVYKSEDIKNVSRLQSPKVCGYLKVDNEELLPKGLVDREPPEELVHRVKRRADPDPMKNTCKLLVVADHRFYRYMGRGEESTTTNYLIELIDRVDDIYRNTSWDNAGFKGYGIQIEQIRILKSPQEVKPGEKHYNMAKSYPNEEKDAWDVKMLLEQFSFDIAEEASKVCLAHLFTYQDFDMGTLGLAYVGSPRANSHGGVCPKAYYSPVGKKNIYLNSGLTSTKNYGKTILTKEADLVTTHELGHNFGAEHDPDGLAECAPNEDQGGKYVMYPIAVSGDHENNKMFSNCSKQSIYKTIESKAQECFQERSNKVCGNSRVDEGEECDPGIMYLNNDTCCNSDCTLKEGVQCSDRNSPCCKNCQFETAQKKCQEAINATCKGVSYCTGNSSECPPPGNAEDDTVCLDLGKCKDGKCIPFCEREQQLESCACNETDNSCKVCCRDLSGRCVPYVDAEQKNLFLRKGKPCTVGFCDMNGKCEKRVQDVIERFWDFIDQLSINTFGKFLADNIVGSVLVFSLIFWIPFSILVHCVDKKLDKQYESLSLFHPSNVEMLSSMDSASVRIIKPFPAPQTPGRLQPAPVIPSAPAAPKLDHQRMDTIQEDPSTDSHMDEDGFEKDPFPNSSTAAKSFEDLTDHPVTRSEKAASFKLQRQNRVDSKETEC

As for `Cc1ccc(C(=O)c2c[nH]nc2-c2cc(Cl)ccc2O)cc1`, the AC50 at Cytochrome P450 2D6 is 28.2 µM (inconclusive). For the same compound, the IC50 in experiment [1] was > 100 µM (not active).
In the case of `CCc1cc2cc(OC)ccc2nc1SCC(=O)Nc1cc(OC)c(OC)cc1C(=O)O`, the values for the IC50 on Procathepsin L, on Leucine aminopeptidase and on Aspartyl aminopeptidase were > 59.6 µM (not active), < 1 µM (active) and > 73.5 µM (not active), respectively.
Regarding `CC(C)(C)n1nnnc1C(c1ccc(C#N)cc1)N1CCCC2(CCCCC2)C1` (stereo not given), the IC50 in [1] was > 100 µM (not active).
On to `Cc1cc(C(=O)COC(=O)c2ccc[nH]c2=O)c(C)n1-c1ccc(Br)cc1`, for which the IC50 was > 59.6 µM (not active) at Procathepsin L, 2.74 µM (active) at Leucine aminopeptidase and > 73.5 µM (not active) at Aspartyl aminopeptidase.
Regarding `Cc1ccccc1-n1nnnc1Sc1nnnn1-c1ccccc1`, the concentration for a half-maximal effect (EC50) was 4.42 µM (active) in [2] and 4.94 µM (active) in [3]. For the same compound, in experiment [4], the AC50 was 10.4 µM (active).
On to `CCc1cc2c(=O)n(CC)c(SC(C)C(=O)Nc3c(C)n(C)n(-c4ccccc4)c3=O)nc2s1` (stereo not given), for which the IC50 against Estrogen receptor beta is listed as > 50 µM (not active).
Turning to `CC1CCc2sc(NC(=O)C3CC(Cl)=CCC3C(=O)O)c(C#N)c2C1` (stereo not given), the IC50 at Procathepsin L was > 59.6 µM (not active); at Leucine aminopeptidase, < 1 µM (active); at Aspartyl aminopeptidase it was > 73.5 µM (not active).
Take `CCOc1ccc(C2NC(=O)C(C#N)=C(S)N2c2ccc(OC)cc2)cc1OC` (stereo not given): the IC50 is > 100 µM (active) in experiment [5] and 134 µM (active) in experiment [6].
On to `COc1ccc(OC)c(C2Nc3ccccc3N=C3CC(C)(C)CC(O)=C32)c1` (stereo not given), for which, in experiment [7], the AC50 is > 30 µM (inactive).
Still for that read-out and setting: next, `CN(Cc1ccccc1)C(c1ccnc2ccccc12)c1nnnn1-c1ccc2c(c1)OCCO2` (stereo not given): 14.2 µM (active).
Consider `CCN(CC)CCNc1ccnc2cc(Cl)ccc12`, for which, in experiment [1], the IC50 is listed as > 100 µM (not active).
As for `Fc1c(F)c(C(F)(F)F)c(F)c(F)c1N/N=C\c1cccs1`, the EC50 is 43.1 µM (active) in experiment [2] and 109 µM (active) in experiment [3]. Further, the results for the IC50 (at Fatty acid synthase [8]; in experiment [9]; on Fatty acid synthase [10]) were 10.4 µM (active), > 69.5 µM (inactive) and 10.2 µM (active), respectively.
For `COC(=O)C1=C(C)N(Cc2ccccc2C(F)(F)F)C(NCc2ccc3c(c2)OCO3)=NC1c1cccc(Cl)c1` (stereo not given), the IC50 in [11] is > 96.6 µM (inactive).
Same read-out and setting: then `COC(=O)C1=C(C)N(Cc2ccccc2C(F)(F)F)C(NCc2ccccc2)=NC1c1ccc(Cl)cc1` (stereo not given), with > 96.6 µM (inactive).
For the compound `CCc1ccc(C(=O)CSC2=C(C#N)C(c3ccco3)C(C(C)=O)=C(C)N2)cc1` (stereo not given), the values for the EC50 in experiment [12] and in [13] were 14.4 µM (active) and 15.7 µM (active), respectively.

A word on the AC50: it is the midpoint of the concentration-response curve, whichever way the signal moves. The IC50 is the midpoint of a concentration-inhibition curve. As a reminder, the EC50 is the concentration giving half of the maximal effect.
